“Also recorded” adds a separate entry of the source. [ ]: non-standard residue; d: D form.
Tests used:
[1] = Association with DMPC phospholipid, gel filtration chromatography; assay type: binding; conditions: FIGS. 2A-D
Excerpt: To assess the ability of purified Rev-D4F to interact with phospholipids, the purified peptidomimetic was mixed with 1,2-dimyristoyl-sn-glycero-3-phosphocholine (DMPC), which is a component of membrane lipid bi-layer with which cholesterol is associated, and fractionated by gel filtration chromatography.

[2] = target: T1, Scavenger receptor class B type I (SR-BI) (Homo sapiens, UniProt Q8WTV0); assay: SR-BI-dependent cholesterol efflux from SR-BI-transfected cells; assay type: cell-based
T1 construct: expressed in transfected cells
T1 sequence (Q8WTV0 1-509 isoform Q8WTV0-2): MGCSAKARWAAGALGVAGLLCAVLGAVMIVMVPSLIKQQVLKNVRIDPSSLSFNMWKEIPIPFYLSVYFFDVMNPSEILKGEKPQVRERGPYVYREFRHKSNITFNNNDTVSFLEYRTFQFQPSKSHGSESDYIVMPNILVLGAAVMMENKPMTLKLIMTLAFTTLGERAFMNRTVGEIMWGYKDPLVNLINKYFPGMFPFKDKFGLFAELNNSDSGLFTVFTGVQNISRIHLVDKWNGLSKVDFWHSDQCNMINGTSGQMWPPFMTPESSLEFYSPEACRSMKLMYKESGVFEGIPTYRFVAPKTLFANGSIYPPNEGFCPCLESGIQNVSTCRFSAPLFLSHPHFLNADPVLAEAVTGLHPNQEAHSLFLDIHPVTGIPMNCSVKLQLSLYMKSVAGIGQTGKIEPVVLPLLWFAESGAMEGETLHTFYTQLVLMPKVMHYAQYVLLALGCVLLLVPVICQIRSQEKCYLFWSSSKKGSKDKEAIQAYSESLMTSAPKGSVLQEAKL
Protocol: (§1) The effect of Rev-D4F on the cholesterol efflux in a […] was examined. Scavenger receptor class B type I (“SR-BI”) is a receptor for HDL normally expressed on the surface of the liver cells. Tritiated cholesterol was added to cells transfected with SR-BI, with wild type Apo A-I, L4F peptide, D4F peptide, or Rev-D4F peptidomimetic, and the percentage of cholesterol efflux was determined.

[3] = target: T2, ATP-binding cassette protein A1 (ABCA1) (Homo sapiens, UniProt O95477); assay: ABCA1-dependent cholesterol efflux from ABCA1-transfected cells; assay type: cell-based
T2 construct: expressed in transfected cells
Protocol: as §1
The effect of Rev-D4F on the cholesterol efflux in a manner dependent on ATP-binding cassette protein A1 (“ABCA1”) was also examined using the same methodology as for SR-BI, except that ABCA1 was transfected.

[4] = tested on: human aortic endothelial cells; assay: Lipid peroxidation caused by human aortic endothelial cells (TBARS); assay type: cell-based; conditions: FIG. 5; for lipid peroxidation (TBARS) caused by endothelial cells: human aortic endothelial cells as oxidant
Excerpt: (§2) The present study measured the ability of Rev-D4F, D-4F, and L-4F mimetic peptides to inhibit lipid peroxidation caused by human aortic endothelial cells and copper(II) sulfate, based upon inhibiting an increase in concentrations of thiobarbituric acid-reactive substances (TBARS).

[5] = tested on: lipid peroxidation caused by copper(II) sulfate; assay: Lipid peroxidation caused by copper(II) sulfate (TBARS); assay type: biochemical; conditions: copper(II) sulfate as oxidant, FIG. 6
Excerpt: as §2

[6] = tested on: monocyte chemotactic protein-1 (MCP-1) mRNA; assay: MCP-1 mRNA expression in endothelial cells; assay type: cell-based
Excerpt: This study analyzed the effects of Rev-D4F, D-4F, and L-4F mimetic peptides to reduce the levels of an […] marker, monocyte chemotactic protein-1 (MCP-1). Based upon levels of MCP-1 mRNA, all three peptidomimetics reduced the amount of MCP-1.

apoE-null mice = assay: Atherosclerosis in apoE-null mice, oral in drinking water; assay type: in vivo; conditions: aortic root, 1.6 mg/day orally, 6 weeks; for decrease in lesion area as compared to water control: p<0.02
Protocol: In this study, the comparative effect of Rev-D4F, D-4F, and L-4F mimetic peptides on atherosclerosis in apoE-null mice was measured. Four groups of apoE-null mice (4 weeks old, n=15) were fed a chow diet, and administered water (control), Rev-D4F, D-4F, or L-4F mimetic peptides (1.6 mg/day, n=12/group) orally in drinking water for 6 weeks. Quantitative morphometry of aortic root cross sections stained with oil-red O was performed with NIH software.

LDL receptor-null mice = conditions: oral administration; cited from earlier work
LDL = conditions: cited from earlier work; for LDL oxidation: previously shown
[7] = tested on: LDL-induced monocyte chemotactic activity; conditions: previously shown; cited from earlier work
[8] = in vivo; cited from earlier work

T2 sequence (O95477 whole entry, species assumed): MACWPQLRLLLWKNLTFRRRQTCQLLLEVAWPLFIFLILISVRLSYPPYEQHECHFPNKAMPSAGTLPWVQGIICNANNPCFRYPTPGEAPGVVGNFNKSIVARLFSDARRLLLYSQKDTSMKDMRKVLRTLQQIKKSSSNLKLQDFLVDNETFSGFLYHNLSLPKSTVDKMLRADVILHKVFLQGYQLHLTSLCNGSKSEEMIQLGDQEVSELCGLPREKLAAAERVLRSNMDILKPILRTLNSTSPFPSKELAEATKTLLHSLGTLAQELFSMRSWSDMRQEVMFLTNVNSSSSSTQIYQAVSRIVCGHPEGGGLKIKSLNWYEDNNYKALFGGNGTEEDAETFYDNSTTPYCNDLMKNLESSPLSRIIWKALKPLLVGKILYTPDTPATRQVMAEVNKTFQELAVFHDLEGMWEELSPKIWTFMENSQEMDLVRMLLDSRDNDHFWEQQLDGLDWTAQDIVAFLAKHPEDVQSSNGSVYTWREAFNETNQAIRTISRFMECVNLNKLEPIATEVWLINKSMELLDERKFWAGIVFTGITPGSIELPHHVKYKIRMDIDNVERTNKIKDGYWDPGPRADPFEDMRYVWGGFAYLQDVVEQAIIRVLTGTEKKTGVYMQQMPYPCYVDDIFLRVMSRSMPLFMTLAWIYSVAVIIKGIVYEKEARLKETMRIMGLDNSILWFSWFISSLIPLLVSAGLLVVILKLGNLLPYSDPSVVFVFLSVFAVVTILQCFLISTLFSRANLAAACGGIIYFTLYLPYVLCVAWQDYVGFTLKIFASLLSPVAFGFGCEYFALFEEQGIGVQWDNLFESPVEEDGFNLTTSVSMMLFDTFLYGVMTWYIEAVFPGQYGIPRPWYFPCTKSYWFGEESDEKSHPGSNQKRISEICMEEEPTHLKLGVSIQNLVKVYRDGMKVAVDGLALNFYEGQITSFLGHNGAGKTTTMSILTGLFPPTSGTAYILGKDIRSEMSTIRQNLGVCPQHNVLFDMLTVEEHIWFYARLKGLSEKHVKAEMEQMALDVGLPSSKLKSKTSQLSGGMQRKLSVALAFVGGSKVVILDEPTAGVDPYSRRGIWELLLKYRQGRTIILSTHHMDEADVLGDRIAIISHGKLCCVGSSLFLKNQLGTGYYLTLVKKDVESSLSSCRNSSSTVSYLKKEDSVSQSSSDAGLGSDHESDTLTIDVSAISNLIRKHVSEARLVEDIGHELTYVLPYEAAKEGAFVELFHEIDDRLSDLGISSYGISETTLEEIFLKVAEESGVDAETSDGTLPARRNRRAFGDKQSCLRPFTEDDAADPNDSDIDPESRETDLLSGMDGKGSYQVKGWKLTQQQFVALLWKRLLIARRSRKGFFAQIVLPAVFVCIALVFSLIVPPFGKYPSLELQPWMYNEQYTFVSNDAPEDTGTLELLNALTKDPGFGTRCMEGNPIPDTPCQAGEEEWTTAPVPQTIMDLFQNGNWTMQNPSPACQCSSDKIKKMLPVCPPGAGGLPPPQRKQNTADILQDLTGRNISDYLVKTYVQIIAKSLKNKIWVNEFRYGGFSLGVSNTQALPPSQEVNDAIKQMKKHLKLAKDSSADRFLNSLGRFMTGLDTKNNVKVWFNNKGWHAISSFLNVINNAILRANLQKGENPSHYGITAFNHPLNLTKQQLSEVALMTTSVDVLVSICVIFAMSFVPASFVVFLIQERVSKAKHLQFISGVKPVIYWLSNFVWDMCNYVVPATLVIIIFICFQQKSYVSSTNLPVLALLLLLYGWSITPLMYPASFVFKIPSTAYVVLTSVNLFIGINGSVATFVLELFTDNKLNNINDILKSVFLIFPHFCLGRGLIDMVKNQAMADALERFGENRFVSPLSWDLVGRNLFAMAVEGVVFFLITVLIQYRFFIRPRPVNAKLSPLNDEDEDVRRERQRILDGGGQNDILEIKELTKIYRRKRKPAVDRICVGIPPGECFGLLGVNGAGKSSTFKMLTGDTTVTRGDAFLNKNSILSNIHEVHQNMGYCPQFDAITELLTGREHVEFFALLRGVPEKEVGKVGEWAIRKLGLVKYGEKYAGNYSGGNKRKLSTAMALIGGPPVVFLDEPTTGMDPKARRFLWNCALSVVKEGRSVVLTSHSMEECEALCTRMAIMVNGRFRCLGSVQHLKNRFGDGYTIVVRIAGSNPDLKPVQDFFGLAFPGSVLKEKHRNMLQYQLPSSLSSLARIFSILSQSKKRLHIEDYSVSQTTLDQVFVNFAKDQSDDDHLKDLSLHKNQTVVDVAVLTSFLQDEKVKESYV

Substance	spontaneous association with DMPC (co-elution with phospholipid) [1]	efficiency in promoting SR-BI-dependent cholesterol efflux compared to Apo A-I ([2]; per mole basis)	efficiency in promoting SR-BI-dependent cholesterol efflux compared to Apo A-I ([2]; per weight basis)	efficiency in promoting ABCA1-dependent cholesterol efflux compared to Apo A-I ([3]; per mole basis)	efficiency in promoting ABCA1-dependent cholesterol efflux compared to Apo A-I ([3]; per weight basis)	lipid peroxidation (TBARS) caused by endothelial cells [4]	lipid peroxidation (TBARS) caused by copper sulfate [5]	MCP-1 mRNA level ([6]; FIG. 7)	decrease in lesion area as compared to water control (apoE-null mice) [%]	reduction of atherosclerotic lesions (LDL receptor-null mice) [%]	LDL oxidation (LDL)	LDL-induced monocyte chemotactic activity [7]	stability upon oral administration [8]	effect on atherosclerotic lesions (apoE-null mice)	LDL and phospholipid oxidation (LDL; mechanisms independent of HDL-mediated processes)	inhibition in lipid peroxidation compared with D-4F ([4]; endothelial cells as oxidant)	lipid peroxidation (TBARS) caused by endothelial cells ([4]; listed as Rev D-4-F)	inhibition in lipid peroxidation compared with D-4F [5]	lipid peroxidation (TBARS) caused by copper sulfate ([5]; listed as Rev D-4-F)	MCP-1 mRNA level ([6]; FIG. 7, listed as Rev D-4-F)
Ac-D-W-F-K-A-F-Y-D-K-V-A-E-K-F-K-E-A-F-NH2 [D-4F] (Ac-[dD][dW][dF][dK][dA][dF][dY][dD][dK][dV][dA][dE][dK][dF][dK][dE][dA][dF]-NH2)	associated spontaneously	less efficient	more efficient	less efficient	more efficient	significantly decreased; also recorded: inhibit	significantly decreased; also recorded: inhibit	reduced; also recorded: inhibit	33	~80	block	block	stable	–	–	–	–	–	–	–
Ac-D-W-F-K-A-F-Y-D-K-V-A-E-K-F-K-E-A-F-NH2 [L-4F] (Ac-DWFKAFYDKVAEKFKEAF-NH2)	associated spontaneously	less efficient	more efficient	less efficient	more efficient	significantly decreased; also recorded: inhibit	significantly decreased; also recorded: inhibit	reduced; also recorded: inhibit	–	–	block	block	–	no effect	inhibits	–	–	–	–	–
Ac-F-A-E-K-F-K-E-A-V-K-D-Y-F-A-K-F-W-D-NH2 (Ac-[dF][dA][dE][dK][dF][dK][dE][dA][dV][dK][dD][dY][dF][dA][dK][dF][dW][dD]-NH2; SMILES CC(=O)N[C@H](Cc1ccccc1)C(=O)N[C@H](C)C(=O)N[C@H](CCC(=O)O)C(=O)N[C@H](CCCCN)C(=O)N[C@H](Cc1ccccc1)C(=O)N[C@H](CCCCN)C(=O)N[C@H](CCC(=O)O)C(=O)N[C@H](C)C(=O)N[C@@H](C(=O)N[C@H](CCCCN)C(=O)N[C@H](CC(=O)O)C(=O)N[C@H](Cc1ccc(O)cc1)C(=O)N[C@H](Cc1ccccc1)C(=O)N[C@H](C)C(=O)N[C@H](CCCCN)C(=O)N[C@H](Cc1ccccc1)C(=O)N[C@H](Cc1c[nH]c2ccccc12)C(=O)N[C@H](CC(=O)O)C(N)=O)C(C)C) [Rev-D4F]	associated spontaneously	less efficient	more efficient	less efficient	more efficient	significantly decreased	significantly decreased	reduced	46	–	–	–	–	–	–	significantly greater	inhibit	significantly greater	inhibit	inhibit
Apo A-I: the major HDL apoprotein; intact/wild type protein used as comparator	only certain portions	–	–	–	–	–	–	–	–	–	–	–	–	–	–	–	–	–	–	–
